Reference: publication PMC12667295, “A surrogate barrier model for high-throughput blood-brain barrier permeability prediction: integrating LLC-PK1-MOCK/MDR1 Cells and lysosomal trapping correction” (Drug Delivery, 2025)
Where two headings read alike, the source gives them in different places.

Columns and labels:
[1] = cited from earlier work
[2] = Bidirectional transport across LLC-PK1 MOCK monolayer (Transwell); conditions: pig; for recovery at 2 h, 2 µM: LLC-PK1 MOCK cell monolayer (Transwell);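 for all read-outs here: compound quantified by LC-MS/MS in donor and receiver wells, efflux ratio as B-A over A-B Papp, recovery relative to initial donor amount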
P-gp (human MDR1) [3] = assay: Bidirectional transport across LLC-PK1-MDR1 monolayer stably expressing human MDR1 (P-gp) (Transwell); conditions: pig;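 note: 2 h incubation at 37 °C, receiver HBSS with 10 mM Hepes plus 1% BSA, LC-MS/MS of donor and receiver, recovery as receiver plus donor amount over initial donor amount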
Method: (§3) The overexpression and functional activity of P-glycoprotein (P-gp) in the LLC-PK1-MDR1 cells were rigorously validated through multiple methods.
(§4) Cells were passaged at 80−90% confluence (every 2−3 days) using trypsin-EDTA solution. […] The culture medium was replaced every other day, including 200 µL culture medium in the apical and 850 µL cell culture medium in the basolateral side. LLC-PK1 MOCK cells were used at passages of 3−30. LLC-PK1-MDR1 cells were cultured and passaged in the same manner as LLC-PK1 cells except at the density of 1 × 10^4 cells per well. LLC-PK1-MDR1 cells were used at passages of 3−25. For LLC-PK1 MOCK cells and LLC-PK1-MDR1 cells, the experiments were performed on the 4th and 7th day after seeding.
(§5) Monitoring permeability of positive control drugs. […] Samples were collected from the donor well at the start of the incubation (50 µL) as C0, and from the donor and receiver wells at the end of the incubation (50 µL). All samples were stored at - 40 °C for LC-MS/MS analysis.
(§6) Bidirectional transport experiments. […] The transwell experiments were conducted following above-mentioned procedure. […] When the recovery rate of the tested drug is below 80%, the possibility of intracellular accumulation should be considered. The polycarbonate (PC) membrane where cells are grown should be carefully peeled off from the cell culture medium and placed in 100 µL of HBSS buffer solution. […] The process was carried out on ice to prevent heat-induced degradation, applying a power in the range of 300 W for a total duration of 20 minutes. Thereafter, a quantitative analysis of the intracellular drug was conducted, and the drug recovery rate was recalculated based on this analysis.
(§7) The apparent permeability coefficient (Papp, cm/s) was calculated for each transport direction, A-B and B-A, using the following equation: Papp=dQ/dt×1/A×C0 where dQ/dt is the permeation rate (µmol/s), A is the surface area of the insert (0.33 cm^2, Corning), and C0 is the initial donor concentration (µM).
(§8) The efflux ratio (ER) is calculated as the ratio of Papp (B-A)/Papp (A-B). Recovery=TRcumrf+Cdf×VD/Cdi×VD×100% Where TRcumrf is the cumulative transported mass in the receiver chamber at the end of the incubation (nmol), Cdf is the concentration of the drug in the donor chamber at the end of the incubation (μM), VD is the volume of the donor chamber (mL), and Cdi is the initial concentration of the drug in the donor chamber (μM).
(§9) The method of the bidirectional transport experiment was the same as before.

in vitro [4] = assay: in vitro
Method: (§1) Stocks (10 mM) of test compounds were diluted to 5 μM with plasma or tissue homogenate and dialyzed at 37 °C for 6 hours in a shaking incubator. After incubation aliquots of both plasma or tissue homogenate and buffer from the device were taken and added to equal volumes of blank buffer and plasma or tissue homogenate respectively. Samples were then diluted in acetonitrile containing an internal standard prior to centrifugation and analysis of the supernatants by LC-MS/MS. The fu, plasma was calculated using Equation 1:(1) fu,plasma=Concbuffer chamber/Concsample chamber
(§2) Unbound fractions of test drugs in plasma (fu,plasma) and brain tissue (fu,brain). For compounds with existing rat plasma or brain protein-binding data from literature or internal studies, values were directly adopted.

in vitro [5] = assay: in vitro; remark: listed apart in the source
Method: as §1
Rat fraction unbound in brain (fu, brain) was determined as the ratio of concentration in buffer to that in brain.
as §2

in vivo = conditions: rat
From the text: In vivo unbound brain distribution data (Kp,uu,Brain) for 16 drugs and total brain distribution data (Kp,Brain) for 16 drugs was acquired from literature. […] For each tested compound, fifteen rats were randomly divided into five groups of three rats each. […] The time of execution of the rats by CO2 inhalation after administration was optimized according to the in vivo elimination rate to achieve five concentrations of different time points. After the rats were euthanized, cardiac puncture was performed immediately to remove as much whole blood as possible (~7 ml) from the systemic circulation (Quantitatively aliquot 0.2 ml of whole blood for the determination of drug concentration in plasma). Afterwards, the brain tissue was collected immediately and rinsed repeatedly with ice-cold saline 3 times. Then, the surface saline was blotted dry with clean filter paper to remove as much residual drug in the blood vessels as possible. Plasma samples were prepared by centrifugation of the blood samples at 2,500 g for 10 minutes at 4 °C. All brain samples were homogenized by adding 4-fold volume water. All samples were stored at -40 °C before LC-MS/MS analysis. […] The brain tissue partition coefficient (Kp, brain) and brain-to-plasma unbound drug partition ratio (Kp,uu, brain) are calculated according to the following formulas, respectively: Kp,brain=AUC(0−∞,brain)/AUC(0−∞,plasma)Kp,uu,brain=Kp,brain×(fu,tissue/fu,plasma)
Free brain-to-plasma distribution coefficients (Kp,uu,brain) of 41 drugs. Brain distribution coefficients (Kp,uu,brain) were calculated for 41 drugs. […] Plasma and brain concentration-time profiles were generated, and AUC(0-t) values for both matrices were calculated using WinNolin 8.1. Kp,brain was derived as the ratio of brain-to-plasma AUC(0-t).
Kp,uu,brain values were computed by normalizing Kp,brain to unbound fractions (fu,plasma and fu,brain).

P-gp (human MDR1) [6] = assay: in vitro; conditions: pig
Method: as §3, §4, §5, §6, §7, §8, §9

in vitro [7] = conditions: pig; for recovery at 2 h, 2 µM: pH 7.4; for Papp B→A at 2 h, 2 µM: LLC-PK1, pH 7.4
[8] = footnote b, species not stated; ref https://go.drugbank.com; cited from earlier work
[9] = LLC-PK1, pH 7.4, Papp A-B, LLC-PK1 MOCK, 2 µM, 2 h, mean ± s, n = 3, BLQ = below 2 nM
[10] = LLC-PK1, pH 7.4, Papp A-B, LLC-PK1-MDR1, 2 µM, 2 h, mean ± s, n = 3
[11] = LLC-PK1 MOCK cell monolayer (Transwell)

Compound	Papp B→A at 2 h, 2 µM ([2]; LLC-PK1, pH 7.4) [nm/s]	Papp A→B at 2 h, 2 µM [2, 9] [nm/s]	Papp A→B at 2 h, 2 µM (P-gp (human MDR1) [3]; LLC-PK1, pH 7.4) [nm/s]	Papp B→A at 2 h, 2 µM (P-gp (human MDR1) [3]; LLC-PK1, pH 7.4) [nm/s]	fraction unbound at 6 h, 5 µM (in vitro [5]; rat, brain homogenate)	recovery at 2 h, 2 µM (P-gp (human MDR1) [6]; LLC-PK1, pH 7.4) [%]	recovery at 2 h, 2 µM (in vitro [7]; [11]) [%]	efflux ratio at 2 h, 2 µM ([2]; LLC-PK1, pH 7.4)	efflux ratio at 2 h, 2 µM (P-gp (human MDR1) [3]; LLC-PK1, pH 7.4)	also measured
CCC1(c2cnc[nH]2)Cc2ccccc2C1 [Atipamezole]	302 ± 45.2	339 ± 17.2	337 ± 52.1	276 ± 15						Kp, Brain ([1]; ref Li [2019]): 4.40; Kp,uu,Brian ([1]; ref Li [2019]): 1.700
COc1ccc2[nH]c([S+]([O-])Cc3ncc(C)c(OC)c3C)nc2c1 (centres unmarked) [Omeprazole]	289 ± 13.9	342 ± 5.5		415 ± 29.2	0.321	113 ± 1.46				fraction unbound at 6 h, 5 µM (in vitro [4]; rat, plasma): 0.045; Kp uu (in vivo): 1.09; Kp, Brain ([1]; ref Cheng et al. [2002]): 0.15; Papp A→B at 2 h, 2 µM (P-gp (human MDR1) [3]; [10]): 254 ± 6.6 nm/s
COCCOC(=O)C1=C(C)NC(C)=C(C(=O)OC(C)C)C1c1cccc([N+](=O)[O-])c1 (centres unmarked) [Nimodipine]	462 ± 17.9	337 ± 20.8	322 ± 18.3	445 ± 51.1	< 0.01	114 ± 5.22	109 ± 7.08	1.37	1.39	Kp uu (in vivo): < 0.451; Protein binding in plasma [8]: 95.0^b %; Kp, Brain ([1]; ref Li [2020]): 2.25
NC(=O)C[S+]([O-])C(c1ccccc1)c1ccccc1 (centres unmarked) [Modafinil]	156 ± 2.2		227 ± 4.5	239 ± 9.1		107 ± 3.4		0.78	1.05	fraction unbound at 6 h, 5 µM (in vitro [5]): 0.308; Kp (in vivo; SD, in vivo, iv, 1 mg/kg): 0.71; Kp uu (in vivo; SD, in vivo, iv, 1 mg/kg): 0.547; recovery at 2 h, 2 µM (in vitro [7]): 106 ± 2.03%; Protein binding in plasma [8]: 60^b %; Papp A→B at 2 h, 2 µM ([2]; LLC-PK1, pH 7.4): 202 ± 9.8 nm/s
Cc1cc(=O)n(-c2ccccc2)n1C [Antipyrine]	236 ± 14.3	314 ± 31.3	309 ± 14.6	289 ± 17.5	0.809	113 ± 1.41				Protein binding in plasma (in vitro [4]; rat, 6 h, 5 µM): 15.0 ± 5.22%; Kp uu (in vivo; SD, iv, 1 mg/kg): 0.72; Kp (in vivo; SD, iv, 1 mg/kg, Kp, Brain): 0.755; recovery at 2 h, 2 µM ([2]; pH 7.4, Recovery A-B, LLC-PK1 MOCK, 2 µM, 2 h, n = 3): 116 ± 7.41%; recovery at 2 h, 2 µM ([2]; pH 7.4, Recovery B-A, LLC-PK1 MOCK, 2 µM, 2 h, n = 3): 95.2 ± 2.32%
CN(C)CCOC(c1ccccc1)c1ccccc1 [Diphenhydramine]							101 ± 7.46			
Cn1c(=O)c2c(ncn2C)n(C)c1=O [Caffeine]	341 ± 14.9	340 ± 12.2		333 ± 14.9	0.719		121 ± 2.48			fraction unbound at 6 h, 5 µM (in vitro [4]; rat, plasma): 0.772; Kp uu (in vivo): 0.576; Kp, Brain ([1]; ref Bohnert [2016]): 0.618; Papp A→B at 2 h, 2 µM (P-gp (human MDR1) [3]; [10]): 364 ± 14.2 nm/s
CN/C(=N/CCSCc1nc[nH]c1C)NC#N [Cimetidine]	2.8 ± 0.7	6.9 ± 0.7		339 ± 43	0.655	87.4 ± 9.65	96.9 ± 13.3			fraction unbound at 6 h, 5 µM (in vitro [4]; rat, plasma): 0.722; Kp uu (in vivo; SD, iv, 1 mg/kg): 0.008; Kp (in vivo; SD, iv, 1 mg/kg, Kp, Brain): 0.007; Papp A→B at 2 h, 2 µM (P-gp (human MDR1) [3]; [10]): 13.2 ± 3.1 nm/s
Nc1c2c(nc3ccccc13)CCCC2 [Tacrine]						105 ± 4.23				Papp B→A at 2 h, 2 µM (in vitro [7]): 272 ± 22.7 nm/s; Papp A→B at 2 h, 2 µM (in vitro [7]; LLC-PK1, pH 7.4, Papp A-B): 309 ± 17.6 nm/s; recovery at 2 h, 2 µM (in vitro [7]): 114 ± 3.02%; Papp B→A at 2 h, 2 µM (P-gp (human MDR1) [6]; LLC-PK1, pH 7.4): 341 ± 21.6 nm/s; Papp A→B at 2 h, 2 µM (P-gp (human MDR1) [6]; LLC-PK1, pH 7.4, Papp A-B): 236 ± 11 nm/s; Kp, Brain ([1]; rat, in vivo): 9.56; Kp,uu,Brian ([1]; rat, in vivo): 0.78
C=C[C@H]1C[N@@]2CC[C@H]1C[C@@H]2[C@@H](O)c1ccnc2ccc(OC)cc12 [Quinidine]	172 ± 28.5	234 ± 3.7	24.8 ± 10.6	429 ± 21.1		98.7 ± 14.8	99.1 ± 15.6			Kp, Brain ([1]; ref Nicolaï [2020]): 0.32; Kp,uu,Brian ([1]; ref Nicolaï [2020]): 0.036
COc1ccc2c(c1)[C@]13CCCC[C@@H]1[C@H](C2)N(C)CC3 [Dextromethorphan]	259 ± 9.1		188 ± 1.2	219 ± 31.8		93.6 ± 6.54		0.73	1.17	fraction unbound at 6 h, 5 µM (in vitro [4]): 0.35; fraction unbound at 6 h, 5 µM (in vitro [5]): 0.033; Kp (in vivo; SD, in vivo, iv, 1 mg/kg): 11.5; Kp uu (in vivo; SD, in vivo, iv, 1 mg/kg): 0.825; Papp A→B at 2 h, 2 µM ([2]; LLC-PK1, pH 7.4): 355 ± 20.9 nm/s
COc1cc([C@@H]2c3cc4c(cc3[C@@H](O[C@@H]3O[C@@H]5CO[C@@H](C)O[C@H]5[C@H](O)[C@H]3O)[C@H]3COC(=O)[C@H]23)OCO4)cc(OC)c1O [Etoposide]	1.6 ± 0.2		7.5 ± 1	36.8 ± 2.2	< 0.01	100 ± 2.47	106 ± 0.11			Kp (in vivo; SD, iv, 1 mg/kg, Kp, Brain): 0.025; Kp (in vivo; SD, iv, 1 mg/kg, Kp,uu,Brian): 0.008; Protein binding in plasma [8]: 97.0^b %
CC[C@]1(O)C[C@@H]2CN(CCc3c([nH]c4ccccc34)[C@@](C(=O)OC)(c3cc4c(cc3OC)N(C)[C@H]3[C@@](O)(C(=O)OC)[C@H](OC(C)=O)[C@]5(CC)C=CCN6CC[C@]43[C@@H]65)C2)C1 [Vinblastine]	41.6 ± 3.2	43.3 ± 2.1	28.4 ± 2.7	204 ± 18.1	< 0.01	103 ± 9.03	86.5 ± 1.69	0.96	7.2	fraction unbound at 6 h, 5 µM (in vitro [4]; rat, plasma): 0.06; Kp uu (in vivo; SD, iv, 1 mg/kg): < 0.088; Kp (in vivo; SD, iv, 1 mg/kg, Kp, Brain): 0.528
COc1ccc2c(c1)c(CC(=O)O)c(C)n2C(=O)c1ccc(Cl)cc1 [Indomethacin]	189 ± 3.1	161 ± 20.7	149 ± 12.9	203 ± 27.4		99.7 ± 4.24	109 ± 5.97	1.18	1.36	Kp, Brain ([1]; ref Fridén [2009]): 0.01; Kp,uu,Brian ([1]; ref Fridén [2009]): 0.11
CCOc1ccc(NC(C)=O)cc1 [Phenacetin]		352 ± 0.8	366 ± 24.8	290 ± 11.9	0.419					fraction unbound at 6 h, 5 µM (in vitro [4]; rat, plasma): 0.416; Kp uu (in vivo; SD, iv, 1 mg/kg): 0.768; Kp (in vivo; SD, iv, 1 mg/kg, Kp, Brain): 0.763; Papp B→A at 2 h, 2 µM (in vitro [7]): 272 ± 13.2 nm/s
CC(C)NCC(O)COc1cccc2ccccc12 (centres unmarked) [Propranolol]	201 ± 7.1	228 ± 21.3	168 ± 0.9	161 ± 14.6		80.7 ± 1.03	90.9 ± 7.14	0.88	0.96	Kp, Brain ([1]; ref Fridén [2009]): 16.37; Kp,uu,Brian ([1]; ref Fridén [2009]): 0.61
Nc1nnc(-c2cccc(Cl)c2Cl)c(N)n1 [Lamotrigine]										Kp, Brain ([1]; ref Fridén [2009]): 2.02; Kp,uu,Brian ([1]; ref Fridén [2009]): 0.880
COc1cccc(C2(O)CCCCC2CN(C)C)c1 (centres unmarked) [Tramadol]	233 ± 14.3		263 ± 10.5	252 ± 11		109 ± 2.73		0.85	0.96	recovery at 2 h, 2 µM (in vitro [7]): 113 ± 3.59%; Kp, Brain ([1]; ref Fridén [2009]): 5.29; Kp,uu,Brian ([1]; ref Fridén [2009]): 1.46; Papp A→B at 2 h, 2 µM ([2]; LLC-PK1, pH 7.4): 273 ± 2 nm/s
CC(NC(C)(C)C)C(=O)c1cccc(Cl)c1 (centres unmarked) [Bupropion]	238 ± 6.7	273 ± 28.8	266 ± 25.8	195 ± 10						Kp, Brain ([1]; ref Fridén [2009]): 9.78; Kp,uu,Brian ([1]; ref Fridén [2009]): 2.000
